This passage reports IC50, Activity and inhibition results from ChEMBL document CHEMBL4219095, “Synthesis and biological evaluation of 4,6-diaryl-2-pyrimidinamine derivatives as anti-breast cancer agents” (Bioorg Med Chem Lett, 2018).

Structures are written as SMILES. Calls of active or inactive are those of the source. No cut-off for these calls is given here.

One may read the IC50 as the concentration at which inhibition is half-maximal.

For data set [1], the system named is MCF7. Kind of data set: Antiproliferative activity against human MCF7 cells after 48 hrs by MTT assay. Conditions: MCF7, 48 h. The data set is classed as functional, cell-based.
Data set [2] deals with Ishikawa. Kind of data set: Antiproliferative activity against human Ishikawa cells after 48 hrs by MTT assay. The format is functional, cell-based.
Another data set has as its system HUVEC. Kind of data set: Antiproliferative activity against HUVEC after 48 hrs by MTT assay. The format is functional, cell-based. Conditions: Homo sapiens.
The test system of data set [3] is MCF7. Kind of data set: Effect on PgR mRNA expression in human MCF7 cells at 1 uM by SYBR Green dye based RT-PCR analysis. The data set is classed as functional, cell-based.
Data set [4] deals with Vascular endothelial growth factor receptor 2 (Homo sapiens) (UniProt P35968). Conditions: HUVEC, at 1 µM.
Vascular endothelial growth factor receptor 2 (Homo sapiens), sequence (P35968 whole entry): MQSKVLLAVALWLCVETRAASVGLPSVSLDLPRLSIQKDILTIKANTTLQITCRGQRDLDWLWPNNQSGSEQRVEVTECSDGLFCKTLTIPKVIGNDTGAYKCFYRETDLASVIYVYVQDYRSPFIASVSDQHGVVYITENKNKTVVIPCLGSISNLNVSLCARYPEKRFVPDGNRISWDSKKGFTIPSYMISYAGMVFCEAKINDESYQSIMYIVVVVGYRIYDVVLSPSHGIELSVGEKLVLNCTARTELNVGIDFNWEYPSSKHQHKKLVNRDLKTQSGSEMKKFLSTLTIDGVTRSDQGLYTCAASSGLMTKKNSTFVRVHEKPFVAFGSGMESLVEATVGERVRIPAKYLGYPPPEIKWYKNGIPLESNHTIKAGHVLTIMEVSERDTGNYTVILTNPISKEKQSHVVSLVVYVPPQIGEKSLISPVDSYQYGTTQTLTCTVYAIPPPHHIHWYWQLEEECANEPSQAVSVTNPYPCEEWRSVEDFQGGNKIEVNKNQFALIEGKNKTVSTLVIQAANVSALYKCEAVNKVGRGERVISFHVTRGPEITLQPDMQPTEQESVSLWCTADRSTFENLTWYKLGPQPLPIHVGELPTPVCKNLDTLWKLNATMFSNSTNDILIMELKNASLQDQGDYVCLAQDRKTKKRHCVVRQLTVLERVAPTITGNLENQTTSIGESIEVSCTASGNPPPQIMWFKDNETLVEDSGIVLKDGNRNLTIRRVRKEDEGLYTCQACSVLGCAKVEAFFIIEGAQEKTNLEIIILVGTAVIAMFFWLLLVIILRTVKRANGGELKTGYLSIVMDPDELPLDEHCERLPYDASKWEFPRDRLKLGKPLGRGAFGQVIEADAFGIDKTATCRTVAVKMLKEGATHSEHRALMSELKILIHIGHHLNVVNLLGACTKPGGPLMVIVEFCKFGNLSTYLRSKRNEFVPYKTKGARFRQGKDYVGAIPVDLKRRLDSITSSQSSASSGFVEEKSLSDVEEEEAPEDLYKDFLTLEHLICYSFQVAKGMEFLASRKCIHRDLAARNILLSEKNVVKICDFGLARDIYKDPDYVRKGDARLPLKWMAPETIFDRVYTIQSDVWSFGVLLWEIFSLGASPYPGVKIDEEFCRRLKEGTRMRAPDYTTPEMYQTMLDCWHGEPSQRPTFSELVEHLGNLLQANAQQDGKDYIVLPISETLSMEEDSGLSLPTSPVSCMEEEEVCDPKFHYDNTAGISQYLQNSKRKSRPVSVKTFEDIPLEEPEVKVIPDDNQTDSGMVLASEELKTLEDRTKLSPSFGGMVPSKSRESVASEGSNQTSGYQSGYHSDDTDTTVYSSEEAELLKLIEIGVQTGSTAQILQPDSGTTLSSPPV
Description: Inhibition of VEGFR2 phosphorylation in HUVEC at 1 uM after 24 hrs by Western blot analysis
The test system of a further data set is Chorioallantoic membrane. Put plainly: Antiangiogenic activity in chicken fertilized egg chorioallantoic membrane at 1 to 20 uM measured after 72 hrs. The data set is classed as functional, tissue-based. To be noted: Gallus gallus.
The test system of data set [5] is Ishikawa. Kind of data set: Stimulation of cell proliferation in human Ishikawa cells at 10 uM after 48 hrs by MTT assay. The format is ADME, cell-based. For orientation: Tetrazolium assays rely on reduction of a dye to a coloured formazan, in cell work by metabolically active cells.
Data set [6] deals with Ishikawa. Kind of data set: Antiproliferative activity against human Ishikawa cells at >40 uM after 48 hrs by MTT assay. The data set is classed as functional, cell-based.

Consider `COc1ccc(-c2cc(-c3ccc(O)cc3)nc(Nc3ccc(NC(=O)CN4CCCCC4)cc3)n2)cc1`, for which the half-inhibitory concentration (IC50) in the data set with MCF7 [1] was more than 100 µM; in the data set on Ishikawa [2], 1.4 µM; in the data set with HUVEC it was 10.6 µM.

For `O=C(CN1CCCC1)Nc1ccc(Nc2nc(-c3ccc(O)cc3)cc(-c3ccc(O)cc3)n2)cc1`, the IC50 was 19.7 µM in the data set with MCF7 [1], 8.3 µM in the data set on Ishikawa [2] and 7 µM in the data set with HUVEC.

Take `CN(C)CC(=O)Nc1ccc(Nc2nc(-c3ccc(O)cc3)cc(-c3ccc(O)cc3)n2)cc1`: the results for the IC50 with MCF7 [1], in the data set on Ishikawa [2] and with HUVEC were 39.5 µM, 8 µM and 60.6 µM, respectively.

Consider `CN1CCN(CC(=O)Nc2ccc(Nc3nc(-c4ccc(O)cc4)cc(-c4ccc(O)cc4)n3)cc2)CC1`, for which the figures for the IC50 in the data set with MCF7 [1], with Ishikawa [2] and with HUVEC were 5.2 µM, 4.9 µM and 6.8 µM, respectively.

For the compound `CN1CCN(CCOc2ccc(Nc3nc(-c4ccc(O)cc4)cc(-c4ccc(O)cc4)n3)cc2)CC1`, the IC50 came to 5.2 µM in the data set on MCF7 [1], 5.4 µM in the data set on Ishikawa [2] and 2.5 µM in the data set with HUVEC.

As for `CCN(CC)CC(=O)Nc1ccc(Nc2nc(-c3ccc(O)cc3)cc(-c3ccc(OC)cc3)n2)cc1`, the figures for the IC50 in the data set on MCF7 [1], with Ishikawa [2] and with HUVEC were 49 µM, 16.4 µM and 22 µM, respectively.

Turning to `COc1ccc(-c2cc(-c3ccc(O)cc3)nc(Nc3ccc(NC(=O)CN4CCOCC4)cc3)n2)cc1`, the values for the IC50 in the data set on MCF7 [1], in the data set on Ishikawa [2] and in the data set on HUVEC were 19.2 µM, 42.2 µM and 10.2 µM, respectively.

As to `CCN(CC)CCOc1ccc(Nc2nc(-c3ccc(O)cc3)cc(-c3ccc(OC)cc3)n2)cc1`, the figures for the IC50 in the data set on MCF7 [1], in the data set with Ishikawa [2] and in the data set with HUVEC were 5.6 µM, 6.4 µM and 3.5 µM, respectively.

As for `COc1ccc(-c2cc(-c3ccc(O)cc3)nc(Nc3ccc(OCCN4CCCCC4)cc3)n2)cc1`, the IC50 in the data set with MCF7 [1] was determined as 17.1 µM; in the data set on Ishikawa [2], 4.8 µM; in the data set on HUVEC, 4.5 µM.

On to `COc1ccc(-c2cc(-c3ccc(O)cc3)nc(Nc3ccc(NC(=O)CN4CCN(C)CC4)cc3)n2)cc1`, for which the IC50 in the data set on MCF7 [1] was found to be 4.1 µM; with Ishikawa [2], 4.2 µM; in the data set with HUVEC, 4.7 µM.

As to `COc1ccc(-c2cc(-c3ccc(OC)cc3)nc(Nc3ccc(NC(=O)CN4CCOCC4)cc3)n2)cc1`, the IC50 with MCF7 [1] is 33.1 µM.

With `Oc1ccc(-c2cc(-c3ccc(O)cc3)nc(Nc3ccc(OCCN4CCCC4)cc3)n2)cc1`, the IC50 stood at 57 µM in the data set with MCF7 [1], 4.5 µM in the data set with Ishikawa [2] and 4.7 µM with HUVEC.

As to `CCN(CC)CCOc1ccc(Nc2nc(-c3ccc(OC)cc3)cc(-c3ccc(OC)cc3)n2)cc1`, the IC50 came out at 5 µM in the data set with MCF7 [1], 4.3 µM in the data set on Ishikawa [2] and 2.2 µM with HUVEC.

`COc1ccc(-c2cc(-c3ccc(OC)cc3)nc(Nc3ccc(NC(=O)CN4CCCC4)cc3)n2)cc1`: the IC50 was 2.2 µM with MCF7 [1], 1.9 µM in the data set with Ishikawa [2] and 2.5 µM in the data set on HUVEC. In addition, in the data set with MCF7 [3], the result was inactive. In data set [4], the inhibition entry is “Active”. Moreover, the result with Chorioallantoic membrane was Active.

On to `COc1ccc(-c2cc(-c3ccc(OC)cc3)nc(Nc3ccc(OCCN(C)C)cc3)n2)cc1`, for which the IC50 with MCF7 [1] was 3.6 µM; in the data set with Ishikawa [2], 5.1 µM; with HUVEC it was 4.6 µM.

`COc1ccc(-c2cc(-c3ccc(O)cc3)nc(Nc3ccc(OCCN4CCN(C)CC4)cc3)n2)cc1`: the IC50 with MCF7 [1] was determined as 4.8 µM; with Ishikawa [2] it was 5.3 µM; with HUVEC, 2.4 µM.

In the case of `CCN(CC)CCOc1ccc(Nc2nc(-c3ccc(O)cc3)cc(-c3ccc(O)cc3)n2)cc1`, the IC50 with MCF7 [1] was found to be 5.1 µM; with Ishikawa [2], 4.8 µM; in the data set with HUVEC, 2.5 µM.

As for `COc1ccc(-c2cc(-c3ccc(O)cc3)nc(Nc3ccc(OCCN4CCCC4)cc3)n2)cc1`, the IC50 in the data set with MCF7 [1] was 4.6 µM; in the data set with Ishikawa [2], 5.9 µM; in the data set with HUVEC it was 3.1 µM.

`COc1ccc(-c2cc(-c3ccc(OC)cc3)nc(Nc3ccc(OCCN4CCN(C)CC4)cc3)n2)cc1`: the IC50 with MCF7 [1] came to 4.2 µM; in the data set with Ishikawa [2], 5.7 µM; with HUVEC it was 3 µM.

As for `CCN(CC)CC(=O)Nc1ccc(Nc2nc(-c3ccc(O)cc3)cc(-c3ccc(O)cc3)n2)cc1`, the IC50 in the data set on MCF7 [1] came out at 27 µM; with Ishikawa [2], 17.3 µM; in the data set on HUVEC, 19 µM.

On to `Oc1ccc(-c2cc(-c3ccc(O)cc3)nc(Nc3ccc(OCCN4CCCCC4)cc3)n2)cc1`, for which the IC50 in the data set on MCF7 [1] was 6.1 µM; with Ishikawa [2] it was 5 µM; in the data set on HUVEC it was 4.6 µM.

In the case of `COc1ccc(-c2cc(-c3ccc(OC)cc3)nc(Nc3ccc(NC(=O)CN4CCN(C)CC4)cc3)n2)cc1`, the IC50 in the data set on MCF7 [1] is 1.8 µM; in the data set with Ishikawa [2], 5.7 µM; in the data set with HUVEC, 5 µM.

On to `COc1ccc(-c2cc(-c3ccc(OC)cc3)nc(Nc3ccc(OCCN4CCCCC4)cc3)n2)cc1`, for which the IC50 came to 32.4 µM with MCF7 [1], 1.9 µM in the data set with Ishikawa [2] and 5.4 µM in the data set on HUVEC.

Take `COc1ccc(-c2cc(-c3ccc(O)cc3)nc(Nc3ccc(OCCN(C)C)cc3)n2)cc1`: the IC50 in the data set with MCF7 [1] came out at 3.6 µM; in the data set on Ishikawa [2] it was 5.2 µM; in the data set with HUVEC, 4.7 µM.

For `COc1ccc(-c2cc(-c3ccc(O)cc3)nc(Nc3ccc(NC(=O)CN4CCCC4)cc3)n2)cc1`, the IC50 with MCF7 [1] was 4.5 µM; in the data set with Ishikawa [2] it was 5.5 µM; with HUVEC, 2.3 µM.

Consider `CN(C)CCOc1ccc(Nc2nc(-c3ccc(O)cc3)cc(-c3ccc(O)cc3)n2)cc1`, for which the figures for the IC50 with MCF7 [1], in the data set on Ishikawa [2] and with HUVEC were 19.4 µM, 1.6 µM and 4.7 µM, respectively.

Regarding `CC/C(=C(\c1ccccc1)c1ccc(OCCN(C)C)cc1)c1ccccc1` [TAMOXIFEN], the Activity entry in the data set on Ishikawa [5] was “Toxic”. In the data set with MCF7 [3], the result was inactive. Further, the outcome in the data set with Ishikawa [6] was Active.

`Oc1ccc(-c2cc(-c3ccc(O)cc3)nc(Nc3ccc(OCCN4CCOCC4)cc3)n2)cc1` had an IC50 in the data set on HUVEC of 74.9 µM.

For the compound `COc1ccc(-c2cc(-c3ccc(OC)cc3)nc(Nc3ccc(NC(=O)CN(C)C)cc3)n2)cc1`, the IC50 in the data set on MCF7 [1] amounted to 2.5 µM; in the data set on Ishikawa [2] it was 3.6 µM; in the data set with HUVEC, 2.8 µM.

Consider `CCN(CC)CCNC(=O)c1c(C)[nH]c(/C=C2\C(=O)Nc3ccc(F)cc32)c1C` [SUNITINIB], for which, in the data set on Chorioallantoic membrane, the result was Active. In addition, in the data set with HUVEC, half-maximal inhibition (IC50) required 3 µM.

On to `COc1ccc(-c2cc(-c3ccc(O)cc3)nc(Nc3ccc(NC(=O)CN(C)C)cc3)n2)cc1`, for which the results for the IC50 in the data set with MCF7 [1], with Ishikawa [2] and in the data set with HUVEC were 3.4 µM, 6.3 µM and 3.8 µM, respectively.

Regarding `COc1ccc(-c2cc(-c3ccc(OC)cc3)nc(Nc3ccc(OCCN4CCCC4)cc3)n2)cc1`, the IC50 in the data set with MCF7 [1] was 2.6 µM; in the data set with Ishikawa [2], 3.9 µM; in the data set with HUVEC, 2.1 µM.

Consider `O=C(CN1CCCCC1)Nc1ccc(Nc2nc(-c3ccc(O)cc3)cc(-c3ccc(O)cc3)n2)cc1`, for which the values for the IC50 in the data set on MCF7 [1], in the data set with Ishikawa [2] and in the data set with HUVEC were 26.4 µM, 13.5 µM and 7.4 µM, respectively.

Consider `O=C(CN1CCOCC1)Nc1ccc(Nc2nc(-c3ccc(O)cc3)cc(-c3ccc(O)cc3)n2)cc1`, for which the IC50 was 15.6 µM in the data set with MCF7 [1], 60.4 µM with Ishikawa [2] and 47 µM with HUVEC.
